Assay [1] in a line: Antidiabetic activity in Wistar rat hemidiaphragm assessed as glucose uptake at 2 mg after 45 mins by GOD/POD enzymatic method in presence of insulin. The settings on record: Diaphragm.
The nature of assay [2]: Antidiabetic activity in Wistar rat hemidiaphragm assessed as glucose uptake at 2 mg after 45 mins by GOD/POD enzymatic method in absence of insulin. The settings on record: Diaphragm.

Activity data for 16 compounds are collected here from ChEMBL document CHEMBL1155399, “Novel glitazones: design, synthesis, glucose uptake and structure-activity relationships” (Bioorg Med Chem Lett, 2010).

In the case of `COc1ccc(NC(=O)COc2ccc(CC3SC(=O)NC3=O)cc2OC)cc1` (configuration not stated), the figures for the Activity in assay [1] and in assay [2] were 30.2 mg/g and 11.2 mg/g, respectively.

Turning to `CN(CCOc1ccc(CC2SC(=O)NC2=O)cc1)c1ccccn1` (configuration not stated), the figures for the Activity in assay [1] and in assay [2] were 35.2 mg/g and 11.2 mg/g, respectively.

With `COc1cc(/C=C2/SC(=O)NC2=O)ccc1OCC(=O)NCc1ccccc1`, the results for the Activity in assay [1] and in assay [2] were 31.8 mg/g and 10.5 mg/g, respectively.

With `COc1ccc(NC(=O)COc2ccc(/C=C3/SC(=O)NC3=O)cc2OC)cc1`, the values for the Activity in assay [1] and in assay [2] were 36.2 mg/g and 10.8 mg/g, respectively.

`COc1cc(/C=C2/SC(=O)NC2=O)ccc1OCC(=O)Nc1ccccn1`: the Activity turned out to be 32 mg/g in assay [1] and 12.2 mg/g in assay [2].

Consider `COc1cc(/C=C2/SC(=O)NC2=O)ccc1OCC(=O)NC1CCCCC1`, for which the Activity in assay [1] came to 27.2 mg/g; in assay [2], 9.5 mg/g.

Consider `COc1cc(/C=C2/SC(=O)NC2=O)ccc1OCC(=O)Nc1ccccc1[N+](=O)[O-]`, for which the results for the Activity in assay [1] and in assay [2] were 26.2 mg/g and 9.75 mg/g, respectively.

Turning to `COc1cc(/C=C2/SC(=S)NC2=O)ccc1OCC(=O)Nc1ccccc1`, the Activity in assay [1] was 24.8 mg/g; in assay [2], 8 mg/g.

As to `COc1cc(/C=C2/SC(=O)NC2=O)ccc1OCC(=O)Nc1ccccc1`, the Activity in assay [1] amounted to 28.5 mg/g; in assay [2], 12 mg/g.

Consider `COc1ccc(NC(=O)COc2ccc(/C=C3/SC(=S)NC3=O)cc2OC)cc1`, for which the results for the Activity in assay [1] and in assay [2] were 33.5 mg/g and 9.75 mg/g, respectively.

Consider `COc1cc(/C=C2/SC(=S)NC2=O)ccc1OCC(=O)NC1CCCCC1`, for which the figures for the Activity in assay [1] and in assay [2] were 30 mg/g and 11.8 mg/g, respectively.

`COc1cc(/C=C2/SC(=S)NC2=O)ccc1OCC(=O)Nc1ccccc1[N+](=O)[O-]`: the Activity in assay [1] was found to be 25.5 mg/g; in assay [2], 9 mg/g.

For `COc1cc(/C=C2/SC(=O)NC2=O)ccc1OCC(=O)Nc1ccccc1C(N)=O`, the results for the Activity in assay [1] and in assay [2] were 29 mg/g and 10 mg/g, respectively.

Regarding `COc1cc(/C=C2/SC(=S)NC2=O)ccc1OCC(=O)NCc1ccccc1`, the Activity was 26.8 mg/g in assay [1] and 10.2 mg/g in assay [2].

On to `COc1ccc(NC(=O)COc2ccc(CC3SC(=S)NC3=O)cc2OC)cc1` (configuration not stated), for which the Activity in assay [1] was determined as 28.2 mg/g; in assay [2] it was 9.5 mg/g.

As to `COc1cc(/C=C2/SC(=S)NC2=O)ccc1OCC(=O)Nc1ccccn1`, the Activity worked out at 30 mg/g in assay [1] and 9.75 mg/g in assay [2].
